The target in one assay is human orexin 1 receptor (Homo sapiens, UniProt O43613). The assay can be described thus: Human orexin 1 receptor radioligand binding. The conditions noted are these: read-out: hOX1 Ki. In a few lines:
(§1)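 Ki values derive from one-site competition IC50s corrected with the radioligand's predetermined Kd, triplicates per run, averaged over 2-20 runs. Cell homogenates (rat or human OX1R) compete against [^3H]-thiazolyl-oxadiazolyl-pyrrolidine methanone in PBS; 10 μM almorexant sets nonspecific binding; scintillation counting after washing.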

Another assay deals with human orexin 2 receptor (Homo sapiens (Human), UniProt O43614). Briefly: Human orexin 2 receptor radioligand binding. To be noted: read-out: hOX2 Ki. In a few lines: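 Ki derived from one-site competition IC50 using predetermined Kd of [3H]-EMPA, triplicate points, 2-20 runs averaged. Binding done on homogenized HEK293 cells stably expressing human orexin 2 receptor, DMSO ≤0.1%, with 10 μM almorexant defining nonspecific binding; filtered, washed, scintillation counted.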
human orexin 2 receptor, sequence (O43614 whole entry): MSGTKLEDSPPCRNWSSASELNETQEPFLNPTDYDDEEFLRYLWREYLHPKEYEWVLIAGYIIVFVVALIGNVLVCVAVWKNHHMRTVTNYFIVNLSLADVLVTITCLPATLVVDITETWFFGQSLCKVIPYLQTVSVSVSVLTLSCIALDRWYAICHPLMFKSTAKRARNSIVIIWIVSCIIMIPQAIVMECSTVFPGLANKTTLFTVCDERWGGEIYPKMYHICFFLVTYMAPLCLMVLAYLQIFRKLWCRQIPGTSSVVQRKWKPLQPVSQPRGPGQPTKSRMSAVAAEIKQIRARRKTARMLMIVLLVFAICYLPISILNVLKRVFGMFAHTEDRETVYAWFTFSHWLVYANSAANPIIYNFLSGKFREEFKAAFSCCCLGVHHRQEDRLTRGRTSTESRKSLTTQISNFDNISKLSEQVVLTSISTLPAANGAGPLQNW

For another assay, the target named is rat orexin 1 receptor (Rattus norvegicus, UniProt P56718). Briefly: Rat orexin 1 receptor radioligand binding. To be noted: read-out: rOX1 Ki. In a few lines:
as §1

The mark [1] stands for this setting: human orexin 1 receptor, averages of 2-20 runs.
Where [2] appears, read: human orexin 2 receptor, averages of 2-20 runs.
[3] abbreviates: rat orexin 1 receptor, averages of 2-20 runs.

Where two headings read alike, the source gives them in different places.

As to `O=C(c1c(F)cccc1-c1ncccn1)N1C[C@H]2C[C@@H](Nc3ncc(Cl)cn3)[C@@H]1C2` [Example 239, ((1S,4S,6R)-6-((5-chloropyrimidin-2-yl)amino)-2-azabicyclo[2.2.1]heptan-2-yl)(2-fluoro-6-(pyrimidin-2-yl)phenyl)methanone], the inhibition constant (Ki) was determined as 41 nM on human orexin 1 receptor (setting [1]), 726 nM at human orexin 2 receptor (setting [2]) and 23 nM at rat orexin 1 receptor (setting [3]).

In the case of `O=C(c1ccccc1-c1ncc(F)cn1)N1C[C@@H]2CC[C@H]1[C@H](Oc1cnc(C(F)(F)F)cn1)C2` [Example 272, (2-(5-fluoropyrimidin-2-yl)phenyl)((1S,4R,6R)-6-((5-(trifluoromethyl)pyrazin-2-yl)oxy)-2-azabicyclo[2.2.2]octan-2-yl)methanone], the figures for the Ki on human orexin 1 receptor (setting [1]), on human orexin 2 receptor (setting [2]) and on rat orexin 1 receptor (setting [3]) were 11 nM, 1400 nM and 23 nM, respectively.

On to `O=C(c1cc(F)ccc1-c1ncccn1)N1C[C@H]2C[C@@H](Nc3ccc(C(F)(F)F)cn3)[C@@H]1C2` [Example 58, (5-fluoro-2-(pyrimidin-2-yl)phenyl)((1S,4S,6R)-6-((5-(trifluoromethyl)pyridin-2-yl)amino)-2-azabicyclo[2.2.1]heptan-2-yl)methanone], for which the figures for the Ki on human orexin 1 receptor (setting [1]), on human orexin 2 receptor (setting [2]) and on rat orexin 1 receptor (setting [3]) were 3 nM, 193 nM and 5 nM, respectively.

With `Cc1ccc(-n2nccn2)c(C(=O)N2CC3CC(Oc4ncc(C(F)(F)F)cc4F)C2C3)n1` [Example 98, (1S,4R,6R)-6-((3-fluoro-5-(trifluoromethyl)pyridin-2-yl)oxy)-2-azabicyclo[2.2.1]heptan-2-yl)(6-methyl-3-(2H-1,2,3-triazol-2-yl)pyridin-2-yl)methanone], the Ki was determined as 28 nM at human orexin 1 receptor (setting [1]), 1200 nM on human orexin 2 receptor (setting [2]) and 37 nM at rat orexin 1 receptor (setting [3]).

Regarding `CCc1cnc(O[C@@H]2C[C@H]3C[C@@H]2N(C(=O)c2ccccc2-n2nccn2)C3)nc1` [Example 135, (2-(2H-1,2,3-triazol-2-yl)phenyl)((1S,4R,6R)-6-((5-ethylpyrimidin-2-yl)oxy)-2-azabicyclo[2.2.1]heptan-2-yl)methanone], the values for the Ki on human orexin 1 receptor (setting [1]), on human orexin 2 receptor (setting [2]) and at rat orexin 1 receptor (setting [3]) were 100 nM, 1200 nM and 61 nM, respectively.

With `O=C(c1ccccc1-n1nccn1)N1C[C@H]2C[C@@H](Nc3ccc(C(F)(F)F)nc3)[C@@H]1C2` [Example 246, (2-(2H-1,2,3-triazol-2-yl)phenyl)((1S,4S,6R)-6-((6-(trifluoromethyl)pyridin-3-yl)amino)-2-azabicyclo[2.2.1]heptan-2-yl)methanone], the figures for the Ki at human orexin 1 receptor (setting [1]), at human orexin 2 receptor (setting [2]) and at rat orexin 1 receptor (setting [3]) were 155 nM, 843 nM and 194 nM, respectively.

For `Cc1ccc(-c2ncccn2)c(C(=O)N2C[C@@H]3CC[C@H]2[C@H](Oc2ccc(C(F)(F)F)cn2)C3)n1` [Example 265, (6-methyl-3-(pyrimidin-2-yl)pyridin-2-yl)((1S,4R,6R)-6-((5-(trifluoromethyl)pyridin-2-yl)oxy)-2-azabicyclo[2.2.2]octan-2-yl)methanone], the Ki at human orexin 1 receptor (setting [1]) was 19 nM; on human orexin 2 receptor (setting [2]), 306 nM; at rat orexin 1 receptor (setting [3]), 14 nM.

Take `Cc1ccc(-n2nccn2)c(C(=O)N2C[C@@H]3CC[C@H]2[C@H](Oc2ccc(C(F)(F)F)cn2)C3)n1` [Example 76, (6-methyl-3-(2H-1,2,3-triazol-2-yl)pyridin-2-yl)((1S,4R,6R)-6-((5-(trifluoromethyl)pyridin-2-yl)oxy)-2-azabicyclo[2.2.2]octan-2-yl)methanone]: the values for the Ki at human orexin 1 receptor, on human orexin 2 receptor and on rat orexin 1 receptor were 3 nM, 211 nM and 4 nM, respectively.

In the case of `O=C(c1cccc(F)c1-c1ncccn1)N1C[C@H]2C[C@@H](Nc3cnc(C(F)(F)F)cn3)[C@@H]1C2` [Example 67, (3-fluoro-2-(pyrimidin-2-yl)phenyl)((1S,4S,6R)-6-((5-(trifluoromethyl)pyrazin-2-yl)amino)-2-azabicyclo[2.2.1]heptan-2-yl)methanone], the Ki was determined as 7 nM at human orexin 1 receptor (setting [1]), 264 nM on human orexin 2 receptor (setting [2]) and 7 nM on rat orexin 1 receptor (setting [3]).

Broadly, the Ki is a measure of affinity in units of concentration, obtained from inhibition or displacement.

The values are drawn from patent publication US9611277B2 (Janssen Pharmaceutica NV, priority 2013, dated 2017).
